This is an account of results in ChEMBL document CHEMBL1806475, “Phosphopeptides with improved cellular uptake properties as ligands for the polo-box domain of polo-like kinase 1” (Bioorg Med Chem Lett, 2011).

Where a SMILES comes first, the peptide text is derived from it.

For series [1], the target named is Serine/threonine-protein kinase PLK1 (Homo sapiens, UniProt P53350). Briefly: Binding affinity to human polo-box domain of PLK1 after 1 hr by fluorescence polarization-based assay.
The test system of series [2] is HT-29. Briefly: Cellular uptake in human HT-29 cell vesicular compartments at 25 uM after 60 mins using Hoechst H33342 dye by fluorescence microscopy analysis. It is filed as ADME, cell-based. Particulars: ht-29, 1 h; call rule not given here.
Series [3] concerns MCF7. The series is described as follows: Cellular uptake in human MCF7 cells at 25 uM after 60 mins by flow cytometry. Particulars: mcf7, 1 h. The series is classed as ADME, cell-based.
In series [4] the test system is HeLa. Briefly: Cellular uptake in human HeLa cells at 25 uM after 60 mins by flow cytometry. It is filed as ADME, cell-based. The conditions noted are these: 1 h.
Series [5] relates to MCF7. The series is described as follows: Cellular uptake in human MCF7 cell vesicular compartments at 50 uM after 60 mins using Hoechst H33342 dye by fluorescence microscopy analysis. It is filed as ADME, cell-based. The conditions noted are these: mcf7, 1 h.
The subject of series [6] is HT-29. The series is described as follows: Cellular uptake in human HT-29 cells at 25 uM after 60 mins by flow cytometry. The series is classed as ADME, cell-based. Particulars: ht-29, 1 h.
Series [7] deals with HeLa. The series is described as follows: Cellular uptake in human HeLa cell vesicular compartments at 50 uM after 60 mins using Hoechst H33342 dye by fluorescence microscopy analysis. It is filed as ADME, cell-based. The conditions noted are these: 1 h.
Series [8] relates to FaDu. Briefly: Cellular uptake in human FADU cells assessed per mg of protein. It is filed as ADME, cell-based.
For series [9], the system named is HT-29. The series is described as follows: Cellular uptake in human HT-29 cells assessed per mg of protein. The series is classed as ADME, cell-based.
Series [10] concerns HT-29. Briefly: Cellular uptake in human HT-29 cells at 25 uM after 60 mins by flow cytometry relative to cellular uptake in human HeLa cells. The series is classed as ADME, cell-based. The conditions noted are these: ht-29, 1 h.
For series [11], the system named is MCF7. Briefly: Cellular uptake in human MCF7 cells at 25 uM after 60 mins by flow cytometry relative to cellular uptake in human HeLa cells. It is filed as ADME, cell-based. Particulars: mcf7, 1 h.
The subject of series [12] is HT-29. The series is described as follows: Toxicity in human HT-29 cells at up to 100 uM after 24 hrs. The series is classed as cell-based. The conditions noted are these: ht-29, 24 h.
Series [13] concerns MCF7. The series is described as follows: Toxicity in human MCF7 cells at up to 100 uM after 24 hrs. It is filed as cell-based. Particulars: mcf7, 24 h.
Series [14] concerns HeLa. The series is described as follows: Toxicity in human HeLa cells at up to 100 uM after 24 hrs. It is filed as cell-based.
The subject of series [15] is MCF7. The series is described as follows: Cellular uptake in human MCF7 cell nucleus at 50 uM after 60 mins using Hoechst H33342 dye by fluorescence microscopy analysis. The conditions noted are these: mcf7, 1 h. It is filed as ADME, cell-based.

Sequence of Serine/threonine-protein kinase PLK1 (P53350 whole entry, the tested form may be a part): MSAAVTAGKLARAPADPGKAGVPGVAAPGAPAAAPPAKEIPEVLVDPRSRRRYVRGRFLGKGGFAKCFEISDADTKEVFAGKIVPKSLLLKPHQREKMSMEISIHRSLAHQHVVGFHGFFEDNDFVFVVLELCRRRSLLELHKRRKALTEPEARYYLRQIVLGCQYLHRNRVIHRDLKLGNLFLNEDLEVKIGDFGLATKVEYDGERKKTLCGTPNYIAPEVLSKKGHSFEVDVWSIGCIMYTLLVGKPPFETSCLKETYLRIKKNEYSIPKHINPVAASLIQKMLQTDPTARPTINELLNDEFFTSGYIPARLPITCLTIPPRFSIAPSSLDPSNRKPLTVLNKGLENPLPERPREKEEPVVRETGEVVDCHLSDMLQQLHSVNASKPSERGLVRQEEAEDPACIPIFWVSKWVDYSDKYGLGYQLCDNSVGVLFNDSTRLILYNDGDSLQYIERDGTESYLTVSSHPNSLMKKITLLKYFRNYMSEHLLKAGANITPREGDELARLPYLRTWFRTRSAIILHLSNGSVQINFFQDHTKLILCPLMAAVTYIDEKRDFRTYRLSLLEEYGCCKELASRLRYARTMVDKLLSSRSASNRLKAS

In series [1], `CSCC[C@H](NC(=O)c1ccc2c(c1)C1(OC2=O)c2ccc(O)cc2Oc2cc(O)ccc21)C(=O)N[C@@H](CCC(N)=O)C(=O)N[C@@H](CO)C(=O)N[C@H](C(=O)N1CCC[C@H]1C(=O)N[C@@H](CC(C)C)C(=O)O)[C@@H](C)OP(=O)(O)O` showed an equilibrium dissociation constant (Kd) of 93 nM. Moreover, the Drug uptake entry in series [2] is reported as “Not Active”; in series [3], “Not Active”; in series [4], “Not Active”; in [5], “Not Active”; in series [6], “Active”; in [7], “Not Active”.
Consider `CSCC[C@H](NC(=O)c1ccc([18F])cc1)C(=O)N[C@@H](CCC(N)=O)C(=O)N[C@@H](CO)C(=O)N[C@H](C(=O)N1CCC[C@H]1C(=O)N[C@@H](CC(C)C)C(=O)O)[C@@H](C)OP(=O)(O)O`, for which the Drug uptake in series [8] and in series [9] was less than 1 %ID throughout.
In turn, `CC[C@H](C)[C@H](NC(=O)[C@H](CCCCN)NC(=O)[C@H](CC(N)=O)NC(=O)[C@H](CCCN=C(N)N)NC(=O)[C@H](Cc1ccccc1)NC(=O)[C@H](CCCCN)NC(=O)[C@H](CCCN=C(N)N)NC(=O)[C@H](CC(C)C)NC(=O)[C@H](CCCN=C(N)N)NC(=O)[C@H](CCCCN)NC(=O)[C@H](CCCN=C(N)N)NC(=O)[C@H](CC(C)C)NC(=O)CNC(=O)[C@H](CC(C)C)NC(=O)[C@@H]1CCCN1C(=O)[C@@H](NC(=O)[C@H](CO)NC(=O)[C@H](CCC(N)=O)NC(=O)[C@H](CCSC)NC(=O)c1ccc2c(c1)C1(OC2=O)c2ccc(O)cc2Oc2cc(O)ccc21)[C@@H](C)OP(=O)(O)O)C(=O)N[C@@H](CCCCN)C(=O)N[C@@H](CCC(=O)O)C(=O)N[C@@H](CCCCN)C(N)=O` (HELM PEPTIDE1{[O=C1OC2(c3ccc(O)cc3Oc3cc(O)ccc32)c2cc(C(=O)[*:2])ccc21].M.Q.S.[C[C@@H](OP(=O)(O)O)[C@H](N[*:1])C(=O)[*:2]].P.L.G.L.R.K.R.L.R.K.F.R.N.K.I.K.E.K.[am]}$$$$V2.0) registered a Kd in series [1] of 256 nM. Besides, the Drug uptake entry in [2] is “Active”; in [10], 15%; in [3], “Active”; in series [4], “Active”; in series [11], 15%; in series [5], “Active”. The Drug uptake entry in [6] and in [7] was “Active” each time. The Activity result in [12], in series [13] and in series [14] was “Non-toxic” throughout.
Turning to `CC[C@H](C)[C@H](NC(=O)[C@H](C)NC(=O)[C@@H](NC(=O)[C@H](CCC(N)=O)NC(=O)[C@@H]1CCCN1C(=O)[C@H](Cc1ccccc1)NC(=O)[C@@H](NC(=O)[C@H](Cc1cnc[nH]1)NC(=O)[C@H](Cc1ccccc1)NC(=O)[C@H](CCCCNC(=O)[C@H](C)NC(=O)[C@H](Cc1ccccc1)NC(=O)[C@H](CCCCN)NC(=O)[C@H](CCCNC(=N)N)NC(=O)[C@H](CCCCN)NC(=O)[C@H](CCCCN)NC(=O)[C@H](CCCCN)NC(=O)[C@@H]1CCCN1C(=O)[C@H](C)NC(=O)[C@H](CCCCN)NC(=O)[C@H](CCCNC(=N)N)NC(=O)[C@H](CCCCN)NC(=O)[C@@H](N)CCCCN)NC(=O)[C@H](CC(C)C)NC(=O)[C@@H]1CCCN1C(=O)[C@@H](NC(=O)[C@H](CO)NC(=O)[C@H](CCC(N)=O)NC(=O)[C@H](CCSC)NC(=O)c1ccc2c(c1)C1(OC2=O)c2ccc(O)cc2Oc2cc(O)ccc21)[C@@H](C)OP(=O)(O)O)[C@@H](C)O)[C@@H](C)O)C(=O)NCC(=O)N[C@H](C(=O)NCC(=O)N[C@@H](C)C(=O)N1CCC[C@H]1C(N)=O)C(C)C` (HELM PEPTIDE1{[O=C1OC2(c3ccc(O)cc3Oc3cc(O)ccc32)c2cc(C(=O)[*:2])ccc21].M.Q.S.[C[C@@H](OP(=O)(O)O)[C@H](N[*:1])C(=O)[*:2]].P.L.K.F.H.T.F.P.Q.T.A.I.G.V.G.A.P.[am]}|PEPTIDE2{K.K.R.K.A.P.K.K.K.R.K.F.A}$PEPTIDE1,PEPTIDE2,8:R3-13:R2$$$V2.0), in [1], the Kd was 326 nM. Moreover, the Drug uptake entry is listed as “Active” in series [2]; 15% in [10]; “Active” in series [3]; “Active” in series [4]; 15% in [11]; “Active” in [5]. Further, the Drug uptake entry in [6], in series [15] and in [7] was “Active” each time. Besides, the Activity result in [12], in [13] and in [14] was “Non-toxic” each time.
